Like-named read-outs stand apart in the source and are kept apart here.

The conditions of data set [1]: cited from earlier work.
A further data set has as its target T1, uricase (Cyberlindnera jadinii, UniProt P78609).
T1 construct: purchased Sigma U0880
T1 sequence (P78609 1-303): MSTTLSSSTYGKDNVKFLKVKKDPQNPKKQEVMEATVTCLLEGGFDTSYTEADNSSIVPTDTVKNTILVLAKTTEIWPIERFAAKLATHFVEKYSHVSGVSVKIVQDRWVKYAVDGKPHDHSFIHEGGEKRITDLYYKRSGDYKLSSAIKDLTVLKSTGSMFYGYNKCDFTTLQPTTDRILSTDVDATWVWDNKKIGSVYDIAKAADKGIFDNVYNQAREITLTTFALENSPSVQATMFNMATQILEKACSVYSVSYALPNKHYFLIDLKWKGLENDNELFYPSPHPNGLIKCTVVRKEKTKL
Description: Stability of uricase at 60° C. (enzyme activity recovery, optical assay) with preservative and additives. The format is biochemical. As to conditions: pH 8.0. The method, then: Uricase was obtained from Sigma (U0880). The enzyme was formulated at 100 μg/ml. Measurements of enzyme activity were performed on a 96-well plate using an optical assay: 10 μl of the formulation was mixed with […] (borate buffer 25 mM, pH 8.5) and 50 μL substrate (sodium urate 2 mM). The mixture was equilibrated at room temperature for about 5 min. After 5 min, the following reagents were added in this particular order to each sample (the first reagent must be added at exactly 5 min, the timing of the other reagents addition is less crucial): 50 μl of citrate/phosphate buffer (0.5 M. pH 4.0); 15 μL of TMB (3 mg/mL, dissolved in DMSO) then 15 μL of lactoperoxidase (1 mg/mL, dissolved in water). The resulting solution was mixed thoroughly and absorbance was read at 630 nm using a plate reader. Optical density was calibrated using a range of concentrations of a reference enzyme solution. All measurements were carried out in triplicates and average value was recorded. Stability of enzyme was found in the preliminary experiments to be optimal at pH around 8.0, with minimal effect of ionic strength on the stability. The preservation of the enzyme activity was studied in a background formulation containing 10 mM histidine and 300 mM 1,2-propanediol, adjusted to pH 8. […] The effect of the stabilizing excipients was studied by comparing the stability of uricase in the solution containing the preservative only with that in the solution containing both the preservative and the stabilizing component. The concentration of the additives tested was selected based on their solubility in aqueous solutions.

Data set [2] deals with human growth hormone (hGH) (Homo sapiens, UniProt P01241). The data set is described as follows: Formation of high molecular weight species (HMWS) in aqueous hGH solutions at 40° C., size-exclusion HPLC. The format is physicochemical. As to conditions: 10 mM benzoate anion, background solutions 1 and 2, 40° C. As for the experimental part:
Formation of high molecular weight species (HMWS) was followed in aqueous solutions of hGH (15 mg/mL) using the following size-exclusion HPLC method: The mobile phase was prepared by mixing 97 parts (v/v) of 63 mM sodium phosphate (pH 7.0) with 3 parts (v/v) of propan-2-ol. The mobile phase was filtered prior to its use. The liquid chromatograph (Agilent 1100 series) was equipped with a 214 nm detector, guard column and a 7.8×300 mm BioSep SEC-S2000 column. The flow rate was maintained at 0.6 ml/min. 15 μl of aqueous samples of hGH were injected. The percentage of HMS was expressed as the ratio of the total area of all peaks with shorter elution time than the monomeric form of hGH versus the total peak area, ignoring peaks corresponding the excipients. The hGH solutions were incubated at 40° C. and assessed for the presence of HMWS at specific timepoints. In addition, the samples were assessed by eye for signs of visible precipitation.

The subject of data set [3] is horseradish peroxidase (HRP). The data set is described as follows: Stability of horseradish peroxidase (HRP) at 60° C. (enzyme activity recovery, optical assay) with preservative and additives. Format: biochemical. The method, then: HRP was obtained from Sigma (P8250), The enzyme was formulated at 0.5 mg/ml. Measurements of enzyme activity were performed on a 96-well plate using an optical assay: 20 μl of the formulation was mixed with 180 μl enzyme diluent solution (1.82 mM ABTS, 28 mM hydrogen peroxide in 0.1M sodium phosphate buffer pH 7.0). The resulting solution was mixed thoroughly and absorbance was read at 630 nm using a plate reader after 5 min. Optical density was calibrated using a range of concentrations of a reference enzyme solution. All measurements were carried out in triplicates and average value was recorded. Stability of enzyme was found in the preliminary experiments to be optimal at pH around 7.0 and relatively independent of ionic strength. The preservation of the enzyme activity was studied in background formulations containing 10 mM TRIS and 1,2-propanediol (300 mM) at pH 7.0. With the exception of control solutions, the solutions contained m-cresol (30 mM). The effect of the stabilizing excipients was studied by comparing the stability of HRP in the solution containing the preservative only with that in the solution containing both the preservative and the stabilizing component. The concentration of the additives tested was selected based on their solubility in aqueous solutions.

Sequence of human growth hormone (hGH) (P01241 27-217): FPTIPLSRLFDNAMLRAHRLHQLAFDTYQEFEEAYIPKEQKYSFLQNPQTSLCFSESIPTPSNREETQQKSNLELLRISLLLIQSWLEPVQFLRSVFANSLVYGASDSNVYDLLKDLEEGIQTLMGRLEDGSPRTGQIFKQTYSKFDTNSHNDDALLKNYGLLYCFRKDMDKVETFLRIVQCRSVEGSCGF

On to `O=C(O)c1ccc2ccccc2c1` [2-naphthoic acid], for which the “pKa value(s) of carboxylate group(s)” value in data set [1] (first or only value given) was 4.17.
In the case of `O=C(O)c1cc(O)c(O)c(O)c1` [3,4,5-trihydroxybenzoic acid], the “pKa value(s) of carboxylate group(s)” value in data set [1] (first or only value given) was 4.41.
With `COc1cc(C(=O)O)ccc1O` [4-hydroxy-3-methoxybenzoic acid], the “pKa value(s) of carboxylate group(s)” value in data set [1] (first or only value given) was 4.5.
`OCc1ccccc1` [Benzyl alcohol]: at uricase, the “Effect on stability of uricase at 60° C.” value is on record as “impairment of stability”.
As for `O=C(O)C1CCCCC1` [Cyclohexane carboxylic acid, reference compound], at uricase, the “Effect on stability of uricase at 60° C.” value was “increase in the destabilising effect”.
The same measure, in the same setting: with `Oc1ccccc1` [Phenol] the entry was “impairment of stability”.
In the case of `O=C([O-])c1ccccc1.[K+]` [benzoate anion, potassium benzoate], the “Effect on rate of HMWS formation” value in data set [2] is reported as “lower rate of HMWS formation”.
For `O=C(O)/C=C\c1ccccc1` [cis-cinnamic acid], the “pKa value(s) of carboxylate group(s)” value in data set [1] (first or only value given) is 3.89.
For the molecule `O=C(O)Cc1c[nH]c2ccccc12` [indole-3-acetic acid], in data set [1] (first or only value given), the “pKa value(s) of carboxylate group(s)” value is 4.75.
`Cc1cccc(O)c1` [m-Cresol]: in data set [3] (60° C., pH 7.0), the “Effect on stability of HRP at 60° C.” value is on record as “slight impairment of stability”.
With `O=C(O)c1ccccc1C(=O)O` [phthalic acid], the “pKa value(s) of carboxylate group(s)” value in data set [1] (second value printed (second carboxylate group)) is recorded as 5.28.
For the molecule “HRP: HRP obtained from Sigma (P8250), formulated at 0.5 mg/ml”, the “pH of optimal stability of enzyme” value in data set [3] (preliminary experiments) is reported as “around 7.0”.

Values taken from patent US10925965B2, “Protein formulations with increased stability” (Arecor Limited, priority 2010, dated 2021).
